In patent publication US12202835B2, “Substituted aromatic ring-linked dioxinoquinazolines and dioxinoquinolines as kinase inhibitors” (BEIJING SCITECH-MQ PHARMACEUTICALS LIMITED, priority 2018, dated 2025):

Experiments:
[1] = test system: Ba/F3-AXL cells; experiment: Assay for inhibiting the proliferation of Ba/F3-AXL cells (CCK-8); assay type: cell-based; conditions: 72 hours of incubation, medium with 100 ng/mL hGas6, CCK-8
Method: The values were then imported into Graphpad Prism 5 software for curve fitting, and IC50 was calculated.

[2] = test system: MHCC97H cells; experiment: Assay for inhibiting the proliferation of MHCC97H cells (CCK-8); assay type: cell-based; conditions: Homo sapiens
Summary of the method: (§1)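 Cells seeded in 96-well plates overnight, then exposed 72 h to 9 three-fold dilutions of compound (0.25% DMSO final). Viability by CCK-8 (1-2 h at 37° C., OD 450 nm), survival normalized to untreated and cell-free blanks; IC50 by curve fitting.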

[3] = test system: EBC1 cells; experiment: Assay for inhibiting the proliferation of EBC1 cells (CCK-8); assay type: cell-based; conditions: Homo sapiens, EBC-1
Summary of the method: as §1

[4] = biological target: VEGFR-2 kinase (Homo sapiens (Human), UniProt P35968); experiment: Assay of small molecular compounds for inhibiting the activity of VEGFR-2 kinase (LANCE TR-FRET); assay type: biochemical; conditions: read-out: VEGFR2 IC50
Summary of the method: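 LANCE TR-FRET with human VEGFR-2 (2× stock 0.5 nM) preincubated 30 min with compound (final 2500 to 0.042 nM, 11-point 3-fold), then ULight-JAK-1 (Tyr1023) peptide/ATP added (4× stocks 200 nM/40 μM). Reaction 60 min room temperature, 4% DMSO; IC50 from inhibition-rate curve.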

VEGFR-2 kinase, sequence (P35968 20-1356): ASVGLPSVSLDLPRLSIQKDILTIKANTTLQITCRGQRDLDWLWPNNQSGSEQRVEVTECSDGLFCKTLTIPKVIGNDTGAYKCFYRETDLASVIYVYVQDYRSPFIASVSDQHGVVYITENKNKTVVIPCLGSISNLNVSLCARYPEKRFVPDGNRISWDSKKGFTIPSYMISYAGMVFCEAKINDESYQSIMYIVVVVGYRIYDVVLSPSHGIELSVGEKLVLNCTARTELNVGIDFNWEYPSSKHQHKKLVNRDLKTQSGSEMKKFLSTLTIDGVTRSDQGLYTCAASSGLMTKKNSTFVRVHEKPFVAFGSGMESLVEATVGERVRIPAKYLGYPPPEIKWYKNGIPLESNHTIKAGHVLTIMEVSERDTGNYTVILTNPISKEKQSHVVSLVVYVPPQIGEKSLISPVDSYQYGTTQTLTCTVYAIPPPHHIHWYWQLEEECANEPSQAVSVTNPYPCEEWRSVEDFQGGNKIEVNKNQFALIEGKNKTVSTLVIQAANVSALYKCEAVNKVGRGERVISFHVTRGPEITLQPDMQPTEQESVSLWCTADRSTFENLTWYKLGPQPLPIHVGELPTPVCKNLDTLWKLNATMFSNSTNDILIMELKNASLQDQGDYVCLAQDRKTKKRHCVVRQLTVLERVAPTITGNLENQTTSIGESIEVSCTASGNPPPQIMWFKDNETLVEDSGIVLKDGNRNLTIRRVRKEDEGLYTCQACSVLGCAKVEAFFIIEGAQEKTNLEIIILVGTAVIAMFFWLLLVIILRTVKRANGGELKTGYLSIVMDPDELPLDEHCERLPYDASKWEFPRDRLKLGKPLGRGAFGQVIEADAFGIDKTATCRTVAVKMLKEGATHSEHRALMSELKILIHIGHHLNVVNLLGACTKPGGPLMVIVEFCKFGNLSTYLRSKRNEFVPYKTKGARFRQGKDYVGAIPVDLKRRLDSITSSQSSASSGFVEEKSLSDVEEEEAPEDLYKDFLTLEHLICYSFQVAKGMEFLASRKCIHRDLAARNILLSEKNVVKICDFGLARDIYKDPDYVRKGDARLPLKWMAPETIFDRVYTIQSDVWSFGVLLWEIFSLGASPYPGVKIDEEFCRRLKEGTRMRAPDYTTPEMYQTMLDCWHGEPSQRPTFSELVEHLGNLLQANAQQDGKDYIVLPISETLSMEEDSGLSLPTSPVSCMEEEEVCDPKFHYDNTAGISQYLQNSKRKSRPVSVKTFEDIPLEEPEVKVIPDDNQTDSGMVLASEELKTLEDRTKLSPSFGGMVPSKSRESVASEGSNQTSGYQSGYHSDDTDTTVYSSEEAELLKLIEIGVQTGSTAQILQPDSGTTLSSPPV

SMILES | IC50 [1] [nM] | IC50 [4] [nM] | IC50 [2] [nM] | IC50 [3] [nM]
CCOc1ccn(-c2ccc(F)cc2)c(=O)c1C(=O)Nc1ccc(Oc2ccnc3cc(OCCCC#N)c4c(c23)OCCO4)c(F)c1 [Example 57, N-(4-((5-(3-cyanopropoxy)-2,3-dihydro-[1,4]dioxino[2,3-f]quinolin-10-yl)oxy)-3-fluorophenyl)-4-ethoxy-1-(4-fluorophenyl)-2-oxo-1,2-dihydropyridine-3-carboxamide] | < 50 | ≤ 50 | ≤ 50 | ≤ 50
CCOc1cc2nccc(Oc3ccc(NC(=O)c4c(OCC)ccn(-c5ccc(F)cc5)c4=O)cc3F)c2c2c1OCCO2 [Example 62, N-(4-((5-ethoxy-2,3-dihydro-[1,4]dioxino[2,3-f]quinolin-10-yl)oxy)-3-fluorophenyl)-4-ethoxy-1-(4-fluorophenyl)-2-oxo-1,2-dihydropyridine-3-carboxamide] | < 50 | ≤ 50 | ≤ 50 | ≤ 50
CCOc1ccn(-c2ccc(F)cc2)c(=O)c1C(=O)Nc1ccc(Oc2ccnc3cc(OC(C)C)c4c(c23)OCCO4)c(F)c1 [Example 63, N-(4-((5-isopropoxy-2,3-dihydro-[1,4]dioxino[2,3-f]quinolin-10-yl)oxy)-3-fluorophenyl)-4-ethoxy-1-(4-fluorophenyl)-2-oxo-1,2-dihydropyridine-3-carboxamide] | < 50 | 50 to 500 | 50 to 200 | ≤ 50
CCOc1ccn(-c2ccc(F)cc2)c(=O)c1C(=O)Nc1ccc(Oc2ccnc3cc(OC4COC4)c4c(c23)OCCO4)c(F)c1 [Example 64, N-(4-((5-((oxetan-3-yl)oxy)-2,3-dihydro-[1,4]dioxino[2,3-f]quinolin-10-yl)oxy)-3-fluorophenyl)-4-ethoxy-1-(4-fluorophenyl)-2-oxo-1,2-dihydropyridine-3-carboxamide] | < 50 | 50 to 500 | 50 to 200 | 50 to 200
CCOc1ccn(-c2ccc(F)cc2)c(=O)c1C(=O)Nc1ccc(Oc2ccnc3cc(OC4CCOC4)c4c(c23)OCCO4)c(F)c1 (centres unmarked) [Example 65, N-(4-((5-((tetrahydrofuran-3-yl)oxy)-2,3-dihydro-[1,4]dioxino[2,3-f]quinolin-10-yl)oxy)-3-fluorophenyl)-4-ethoxy-1-(4-fluorophenyl)-2-oxo-1,2-dihydropyridine-3-carboxamide] | < 50 | 50 to 500 | ≤ 50 | ≤ 50
CCOc1ccn(-c2ccc(F)cc2)c(=O)c1C(=O)Nc1ccc(Oc2ccnc3cc(OC4CCOCC4)c4c(c23)OCCO4)c(F)c1 [Example 66, N-(4-((5-((tetrahydropyran-4-yl)oxy)-2,3-dihydro-[1,4]dioxino[2,3-f]quinolin-10-yl)oxy)-3-fluorophenyl)-4-ethoxy-1-(4-fluorophenyl)-2-oxo-1,2-dihydropyridine-3-carboxamide] | < 50 | 50 to 500 | ≤ 50 | ≤ 50
CCOc1ccn(-c2ccc(F)cc2)c(=O)c1C(=O)Nc1ccc(Oc2ccnc3cc(OCCCN4CCC(C)(C)CC4)c4c(c23)OCCO4)c(F)c1 [Example 67, N-(4-((5-(3-(4,4-dimethylpiperidin-1-yl)propoxy)-2,3-dihydro-[1,4]dioxino[2,3-f]quinolin-10-yl)oxy)-3-fluorophenyl)-4-ethoxy-1-(4-fluorophenyl)-2-oxo-1,2-dihydropyridine-3-carboxamide] | < 50 | ≤ 50 | ≤ 50 | ≤ 50

Continued, in another order:

IC50 [1] [nM] | IC50 [4] [nM] | SMILES | IC50 [2] [nM] | IC50 [3] [nM]
< 50 | ≤ 50 | CCOc1ccn(-c2ccc(F)cc2)c(=O)c1C(=O)Nc1ccc(Oc2ccnc3cc(OCCCN4CCN(C)CC4)c4c(c23)OCCO4)c(F)c1 [Example 49, N-(3-fluoro-4-((5-(3-(4-methylpiperazin-1-yl)propoxy)-2,3-dihydro-[1,4]dioxino[2,3-f]quinolin-10-yl)oxy)phenyl)-1-(4-fluorophenyl)-4-ethoxy-2-oxo-1,2-dihydropyridine-3-carboxamide] | ≤ 50 | ≤ 50
< 50 | ≤ 50 | CCOc1ccn(-c2ccc(F)cc2)c(=O)c1C(=O)Nc1ccc(Oc2ccnc3cc(OCCCN4CCN(C(C)=O)CC4)c4c(c23)OCCO4)c(F)c1 [Example 50, N-(4-((5-(3-(4-acetyl-piperazin-1-yl)propoxy)-2,3-dihydro-[1,4]dioxino[2,3-f]quinolin-10-yl)oxy)-3-fluorophenyl)-4-ethoxy-1-(4-fluorophenyl)-2-oxo-1,2-dihydropyridine-3-carboxamide] | ≤ 50 | ≤ 50
< 50 | ≤ 50 | CCOc1ccn(-c2ccc(F)cc2)c(=O)c1C(=O)Nc1ccc(Oc2ccnc3cc(OCCCN4CCS(=O)(=O)CC4)c4c(c23)OCCO4)c(F)c1 [Example 51, N-(4-((5-(3-(1,1-dioxidothiomorpholino)propoxy)-2,3-dihydro-[1,4]dioxino[2,3-f]quinolin-1 0-yl)oxy)-3-fluorophenyl)-4-ethoxy-1-(4-fluorophenyl)-2-oxo-1,2-dihydropyridine-3-carboxamide] | ≤ 50 | ≤ 50
< 50 | ≤ 50 | CCOc1ccn(-c2ccc(F)cc2)c(=O)c1C(=O)Nc1ccc(Oc2ccnc3cc(OCCO)c4c(c23)OCCO4)c(F)c1 [Example 53, N-(4-((5-(2-hydroxyethoxy)-2,3-dihydro-[1,4]dioxino[2,3-f]quinolin-10-yl)oxy)-3-fluorophenyl)-4-ethoxy-1-(4-fluorophenyl)-2-oxo-1,2-dihydropyridine-3-carboxamide] | ≤ 50 | ≤ 50
< 50 | ≤ 50 | CCOc1ccn(-c2ccc(F)cc2)c(=O)c1C(=O)Nc1ccc(Oc2ccnc3cc(OCCCO)c4c(c23)OCCO4)c(F)c1 [Example 54, N-(4-((5-(3-hydroxypropoxy)-2,3-dihydro-[1,4]dioxino[2,3-f]quinolin-10-yl)oxy)-3-fluorophenyl)-4-ethoxy-1-(4-fluorophenyl)-2-oxo-1,2-dihydropyridine-3-carboxamide] | ≤ 50 | ≤ 50
< 50 | 50 to 500 | CCOc1ccn(-c2ccc(F)cc2)c(=O)c1C(=O)Nc1ccc(Oc2ccnc3cc(OCCCOC)c4c(c23)OCCO4)c(F)c1 [Example 55, N-(4-((5-(3-methoxypropoxy)-2,3-dihydro-[1,4]dioxino[2,3-f]quinolin-10-yl)oxy)-3-fluorophenyl)-4-ethoxy-1-(4-fluorophenyl)-2-oxo-1,2-dihydropyridine-3-carboxamide] | ≤ 50 | ≤ 50
< 50 | 50 to 500 | CCOc1ccn(-c2ccc(F)cc2)c(=O)c1C(=O)Nc1ccc(Oc2ccnc3cc(OCC#N)c4c(c23)OCCO4)c(F)c1 [Example 56, N-(4-((5-(cyanomethoxy)-2,3-dihydro-[1,4]dioxino[2,3-f]quinolin-10-yl)oxy)-3-fluorophenyl)-4-ethoxy-1-(4-fluorophenyl)-2-oxo-1,2-dihydropyridine-3-carboxamide] | ≤ 50 | ≤ 50
